Tests used:
S1P5 receptor = S1P5 receptor (Homo sapiens, UniProt Q9H228); test: S1P5 GTP[γ-35S] binding assay, membranes of CHO cells; assay type: biochemical; settings: agonistic activity in vitro; read-out: S1P-5 GTPyS/EC50
Protocol: (§1) A. In Vitro: GPCR Activation Assay Measuring GTP [γ-^35S] Binding to Membranes Prepared from CHO Cells Expressing Human EDG Receptors
(§2) Serial dilutions of compounds (stock in 10 mM DMSO) are prepared by first diluting the compounds in DMSO (1:10) followed by a 1:20 dilution into assay buffer (50 mM HEPES, pH 7.4, 5 mM MgCl2, 1 mM CaCl2, 1% fatty acid-free BSA). S1P (1 mM in DMSO/HCl) is diluted directly into assay buffer. The desired amount of membranes (1-5 μg/well) is diluted with assay buffer containing 10 μM GDP, 25 μg/mL Saponin and 5 mg/mL WGA-SPA beads. 9 μL of pre-diluted compound is placed into the bottom of a 96-well deep-well plate. 440 μL of the membrane-WGA-SPA bead slurry is added and the plate stirred for 15 minutes. Then twice 210 μL are transferred each into a 96-well Optiplate containing 15 μL GTP [γ-^35S] (4 nM in assay buffer). After incubation at room temperature for 120 minutes under constant shaking the plates are centrifuged for 10 minutes at 1000 g to pellet the membrane-SPA beads slurry. Then the plates are measured in a TOPcount NXT. Eight different concentrations of compound are used to generate a concentration response curve (using two data points per concentration) and the corresponding EC50 value using the curve-fitting tool of GraphPad Prism.
For each membrane preparation, titration experiments are first run with S1P control to determine the optimal amount of membranes to be added per assay well.

[1] = biological target: T1, human S1P1 (EDG-1) receptor (Homo sapiens, UniProt P21453); test: S1P1 (EDG-1) GTP[γ-35S] binding assay, membranes of CHO cells; assay type: biochemical; settings: agonistic activity in vitro; read-out: S1P-1 GTPyS/EC50
T1 construct: c-myc (N); expressed in transfected cells
T1 sequence (P21453 whole entry): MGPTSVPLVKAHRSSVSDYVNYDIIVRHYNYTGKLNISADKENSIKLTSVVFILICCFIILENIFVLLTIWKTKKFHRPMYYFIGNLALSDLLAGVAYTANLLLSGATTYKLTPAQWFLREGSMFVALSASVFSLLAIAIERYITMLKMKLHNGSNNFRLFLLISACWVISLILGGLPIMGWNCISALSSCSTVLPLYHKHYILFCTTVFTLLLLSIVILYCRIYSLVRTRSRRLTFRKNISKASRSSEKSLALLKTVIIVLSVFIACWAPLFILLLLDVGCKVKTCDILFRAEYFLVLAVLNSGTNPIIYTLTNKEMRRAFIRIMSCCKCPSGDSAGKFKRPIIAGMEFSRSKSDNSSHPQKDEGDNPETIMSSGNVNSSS
Protocol: as §1
S1P1 (EDG-1) GTP [γ-^35S] assay: Homogenized membranes are prepared from CHO cell clones stably expressing a human EDG-1 N-terminal c-myc tag. Cells are grown in large culture dishes (500 cm^2) to a confluence between 80 and 90%. The culture medium is removed and 20 mL ice-cold buffer A (10 mM HEPES, pH 7.4, 10 mM EDTA, complete protease inhibitor cocktail [1 tablet/50 mL]) added. The cells are harvested by scraping and the cell suspension centrifuged at 750×g for 10 min at 4° C. The pellet is resuspended in 10 mL ice-cold buffer B (20 mM HEPES, pH 7.4, 100 mM NaCl, 10 mM MgCl2, 1 mM EDTA). The cell suspension is homogenized on ice, using a Polytron homogenizer at 25000 rpm at three intervals of 20 seconds each. Then the homogenate is centrifuged at 26900×g for 30 min at 4° C. and the membrane protein pellet resuspended by vortexing in cold buffer B. The protein concentration is determined using the Bio Rad Protein Assay and human IgG as standard. The volume of the membrane protein suspension is adjusted to a final concentration of about 2 mg protein/mL. The solution is then once again homogenized (Polytron) on ice at 25000 rpm for 20 seconds before being aliquoted and stored at −80° C.
as §2

[2] = test system: experimental autoimmune encephalomyelitis (EAE); test: Chronic-progressive EAE model (therapeutic treatment); assay type: in vivo, DA rat; settings: therapeutic treatment after peak of disease; from day 15 post-immunization (after 4 days of treatment) until end of experiment; scale 0-5
circulating lymphocytes = test: Blood lymphocyte depletion in rats; assay type: in vivo, Lewis rats; settings: for recovery of lymphocyte counts back to baseline: within 48 hours
Protocol: Measurement of circulating lymphocytes: Lewis rats (male, 6-12 weeks old) are orally administered with 0.1 to 5 mg/kg of compound (4 ml/kg vehicle, e.g. in max. 2% DMSO/max. 2% PEG200/water or 0.5% methyl cellulose). A vehicle group is included as negative control.
Blood is collected from the sublingual vein at baseline (0 h) and 2, 6, 24 and 48 hours after administration under short isoflurane anesthesia. Whole blood samples are subjected to hematology analysis. Peripheral lymphocyte counts are determined using an automated analyzer. Two to four rats are used to assess the lymphocyte counts of each dose.

[3] = test system: experimental autoimmune uveitis (EAU); test: S-antigen-induced experimental autoimmune uveitis (EAU); assay type: in vivo, Lewis rats; settings: 3 and 10 mg/kg bid p.o., day 7 to day 18 post-immunization
[4] = test system: experimental autoimmune encephalomyelitis (EAE); test: Acute EAE model; assay type: in vivo, Lewis rats; settings: 10 mg/kg b.i.d., oral gavage, days 0-13

Sequence of S1P5 receptor (Q9H228 whole entry): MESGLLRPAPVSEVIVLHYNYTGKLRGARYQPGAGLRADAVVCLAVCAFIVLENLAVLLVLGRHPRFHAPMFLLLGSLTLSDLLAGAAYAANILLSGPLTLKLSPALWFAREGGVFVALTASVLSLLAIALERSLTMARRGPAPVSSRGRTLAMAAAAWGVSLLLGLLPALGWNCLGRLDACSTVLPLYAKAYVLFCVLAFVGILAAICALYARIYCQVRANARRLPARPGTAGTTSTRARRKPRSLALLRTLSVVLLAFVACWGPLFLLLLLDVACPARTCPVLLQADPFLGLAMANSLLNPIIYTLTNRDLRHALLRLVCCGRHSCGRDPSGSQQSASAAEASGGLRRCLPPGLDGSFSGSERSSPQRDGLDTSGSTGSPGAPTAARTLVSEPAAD

EC50 (S1P5 receptor) | EC50 [1] | Compound | clinical scores in chronic-progressive EAE [2] | recovery of lymphocyte counts back to baseline (circulating lymphocytes; 1 mg/kg p.o.) | recovery of lymphocyte counts back to baseline (circulating lymphocytes; 5 mg/kg p.o.) | peripheral lymphocyte counts (circulating lymphocytes; 0.1 to 5 mg/kg p.o., Lewis rats) | time of maximal reduction of peripheral lymphocyte counts post-administration (circulating lymphocytes; 1 or 5 mg/kg p.o., Lewis rats) | protection from autoimmune uveitis [3] | effect on disease symptoms in acute EAE [4]
300 nM | 17 nM | CCOc1ccc(-c2nc(-c3ccc(C4(N)COC4)cc3)no2)cc1C#N [Example 4] | – | – | – | – | – | – | –
280 nM | 29 nM | CCOc1ccc(-c2nc(-c3ccc(C4(O)COC4)cc3)no2)cc1C#N [Example 6, 5-{3-[4-(3-Hydroxy-oxetan-3-yl)-phenyl]-[1,2,4]oxadiazol-5-yl}-2-ethoxy-benzonitrile] | – | – | – | – | – | – | –
310 nM | 25 nM | CC(=O)c1cc(-c2nc(-c3ccc(C4(O)COC4)cc3)no2)ccc1OC(C)C [Example 5] | – | – | – | – | – | – | –

The remaining lines, values behind:

Compound | EC50 (S1P5 receptor) | EC50 [1] | clinical scores in chronic-progressive EAE [2] | recovery of lymphocyte counts back to baseline (circulating lymphocytes; 1 mg/kg p.o.) | recovery of lymphocyte counts back to baseline (circulating lymphocytes; 5 mg/kg p.o.) | peripheral lymphocyte counts (circulating lymphocytes; 0.1 to 5 mg/kg p.o., Lewis rats) | time of maximal reduction of peripheral lymphocyte counts post-administration (circulating lymphocytes; 1 or 5 mg/kg p.o., Lewis rats) | protection from autoimmune uveitis [3] | effect on disease symptoms in acute EAE [4]
CC(C)Oc1ccc(-c2nc(-c3ccc(C4(O)COC4)cc3)no2)cc1C#N [Example 2] | 30 nM | 6 nM | – | – | – | – | – | – | –
CC(C)Oc1ccc(-c2nc(-c3ccc(C4(N)COC4)cc3)no2)cc1C#N [Example 1, 5-{3-[4-(3-Amino-oxetan-3-yl)-phenyl]-[1,2,4]oxadiazol-5-yl}-2-iso-propoxy-benzonitrile] | 90 nM | 10 nM | < 0.5 | fully | partially recover back to baseline | dose-dependent reduction | 6 h | dose-dependent protection from autoimmune uveitis | prevention of disease symptoms
CC(=O)c1cc(-c2nc(-c3ccc(C4(N)COC4)cc3)no2)ccc1OC(C)C [Example 3] | 180 nM | 13 nM | – | – | – | – | – | – | –

— patent publication US20100261766A1, “Phenyl-Oxetanyl-Derivatives” (priority 2007, published 2010)
